Among the test systems are HT29 colon; SW-620 colon; OVCAR-5 ovarian; COLO 205 colon; SNB-75 CNS; SN12C renal; NCI-H226 lung; NCI-H460 lung; CCRF-CEM leukemia; NCI/ADR-RES ovarian.
What all share (experiment): growth of human tumour cells (NCI), 48 h

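Step 1: Grow cells in 96-well plates. Step 2: Expose to compound for 48 hours at 5 concentrations. Step 3: Interpolate endpoints linearly; if unreached, use highest concentration. At the GI50, growth is halved. TGI marks complete inhibition of growth.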 Bounds are passed on as bounds.

With `COc1cccc(C=NC23CC4CC(CC(C4)C2)C3)c1`, the TGI with HT29 colon, in the assay with SW-620 colon, in the assay with OVCAR-5 ovarian, in the assay with COLO 205 colon, with SNB-75 CNS and in the assay on SN12C renal was over 100 µM each time. Besides, the TGI in the assay on NCI-H226 lung, in the assay with NCI-H460 lung and with CCRF-CEM leukemia was over 100 µM in each case.
As to `CCOC(=N)CC(=O)Nc1ccccc1CC`, the TGI in the assay with HT29 colon, with SW-620 colon, in the assay with OVCAR-5 ovarian, in the assay with COLO 205 colon, in the assay on SNB-75 CNS and in the assay on SN12C renal was over 100 µM each time. Further, the TGI in the assay on NCI-H226 lung, in the assay on NCI-H460 lung and in the assay with CCRF-CEM leukemia was over 100 µM in each case.
Turning to `CNC(=O)NCCCCC(NC(C)=O)C(=O)NCc1ccccc1` (stereo not given), the TGI in the assay on HT29 colon, in the assay with SW-620 colon, in the assay with OVCAR-5 ovarian, in the assay on COLO 205 colon, in the assay with SNB-75 CNS and in the assay with SN12C renal was over 100 µM in each case. In addition, the TGI with NCI-H226 lung, in the assay with NCI-H460 lung and with CCRF-CEM leukemia was over 100 µM each time.
Consider `O=C(Nc1ccccc1)N1C(c2ccccc2)=N[C@@H](c2ccccc2)[C@@H]1c1ccccc1`, for which the TGI stood at 31.6 µM with HT29 colon; 35.2 µM in the assay on SW-620 colon; 45.1 µM in the assay on OVCAR-5 ovarian; 28.8 µM in the assay on COLO 205 colon; 53.5 µM with SNB-75 CNS; 47.2 µM in the assay on SN12C renal. The figures for the TGI in the assay on NCI-H226 lung, in the assay with NCI-H460 lung and in the assay with CCRF-CEM leukemia were 46.4 µM, over 100 µM and 60 µM, respectively.
Consider `Cc1cccc(C=NC23CC4CC(CC(C4)C2)C3)c1`, for which the TGI in the assay with HT29 colon, in the assay on SW-620 colon, with OVCAR-5 ovarian, in the assay on COLO 205 colon, with SNB-75 CNS and with SN12C renal was over 100 µM each time. The TGI in the assay on NCI-H226 lung, in the assay on NCI-H460 lung and in the assay with CCRF-CEM leukemia was over 100 µM each time.
On to `O=C1N=C2N=C(c3ccc(Cl)cc3)N(c3ccc(Cl)cc3)N2Sc2ccccc21`, for which the TGI with HT29 colon, in the assay on SW-620 colon, in the assay on OVCAR-5 ovarian, in the assay on COLO 205 colon, with SNB-75 CNS and in the assay with SN12C renal was over 100 µM throughout. Also, the TGI in the assay with NCI-H226 lung, with NCI-H460 lung and in the assay on CCRF-CEM leukemia was over 100 µM each time.
Turning to `O=C(C#Cc1ccccc1)NC/C=C/c1ccccc1`, the TGI with HT29 colon was over 100 µM; with SW-620 colon, over 100 µM; with OVCAR-5 ovarian, over 100 µM; in the assay with COLO 205 colon it was over 100 µM; in the assay on SNB-75 CNS, 45.8 µM; in the assay on SN12C renal it was over 100 µM. For the same compound, the TGI in the assay on NCI-H226 lung was 93.8 µM; in the assay on NCI-H460 lung it was over 100 µM; with CCRF-CEM leukemia, over 100 µM.
As for `NC(=S)c1cccc(C2Nc3ccccc3O2)c1` (stereo not given), the TGI with HT29 colon was over 100 µM; in the assay on SW-620 colon it was over 100 µM; in the assay on OVCAR-5 ovarian it was over 100 µM; in the assay with COLO 205 colon, over 100 µM; with SNB-75 CNS it was over 100 µM; in the assay with SN12C renal it was 12.1 µM. Further, the TGI with NCI-H226 lung, in the assay with NCI/ADR-RES ovarian and with NCI-H460 lung was over 100 µM in each case.
On to `CCOC(=O)/C=C/c1ccc([N+](=O)[O-])o1`, for which the GI50 was 3.71 µM in the assay on HT29 colon; 2.38 µM with SW-620 colon; 2.95 µM with OVCAR-5 ovarian; 2.26 µM with COLO 205 colon; 4.6 µM in the assay with SNB-75 CNS; 3.03 µM in the assay with SN12C renal. Besides, the GI50 with NCI-H226 lung is 2.02 µM; in the assay on NCI-H460 lung, 18.1 µM; in the assay on CCRF-CEM leukemia it was 0.518 µM. Moreover, the TGI with HT29 colon is 15.1 µM; in the assay on SW-620 colon, 7.16 µM; in the assay with OVCAR-5 ovarian it was 8.13 µM; in the assay on COLO 205 colon it was 5.69 µM; with SNB-75 CNS, 94 µM; with SN12C renal, 10.8 µM. The TGI in the assay with NCI-H226 lung amounted to 4.25 µM; in the assay with NCI-H460 lung it was 38.9 µM; with CCRF-CEM leukemia, 10.2 µM.
In the case of `CCOC(=O)c1sc(NC(=O)COc2ccc(/C=C3\CCc4cc(OC)ccc4C3=O)cc2)nc1C`, the GI50 in the assay with HT29 colon was 13.7 µM; with SW-620 colon, 11.4 µM; in the assay with OVCAR-5 ovarian it was 8.97 µM; with COLO 205 colon it was 15.5 µM; with SNB-75 CNS, 6.73 µM; in the assay on SN12C renal, 4.66 µM. The GI50 in the assay with NCI-H226 lung is 13.3 µM; with NCI/ADR-RES ovarian, 8.49 µM; in the assay on NCI-H460 lung, 14.3 µM. In addition, the TGI in the assay on HT29 colon stood at 28.6 µM; with SW-620 colon, 23.5 µM; in the assay with OVCAR-5 ovarian, 24.6 µM; in the assay on COLO 205 colon, 30 µM; with SNB-75 CNS, 24.3 µM; in the assay on SN12C renal, 21 µM. Further, the TGI stood at 27.3 µM in the assay on NCI-H226 lung, 37.5 µM with NCI/ADR-RES ovarian and 28.7 µM with NCI-H460 lung.
Regarding `O=C1C(=O)N(c2cc(Cl)ccc2Cl)C(=O)C(=O)C1c1nc2ccccc2s1`, the TGI in the assay on HT29 colon, in the assay on SW-620 colon, in the assay on OVCAR-5 ovarian, in the assay with COLO 205 colon, with SNB-75 CNS and with SN12C renal was over 100 µM in each case. Further, the TGI in the assay with NCI-H226 lung, in the assay on NCI-H460 lung and in the assay with CCRF-CEM leukemia was over 100 µM in each case.
With `COc1ccc(/C=C(\C#N)c2cc(OC)c(OC)c(OC)c2)cc1`, the GI50 is 0.0251 µM in the assay on HT29 colon; 0.0282 µM in the assay on SW-620 colon; 0.0424 µM in the assay on OVCAR-5 ovarian; 0.011 µM with COLO 205 colon; 0.0297 µM in the assay on SNB-75 CNS; 0.0486 µM with SN12C renal. The GI50 with NCI-H226 lung is 0.0252 µM; in the assay with NCI-H460 lung, 0.0327 µM; in the assay with CCRF-CEM leukemia, 0.0361 µM. The TGI in the assay with HT29 colon was 17.8 µM; in the assay with SW-620 colon, over 100 µM; in the assay with OVCAR-5 ovarian, over 100 µM; in the assay with COLO 205 colon, 0.0251 µM; in the assay with SNB-75 CNS it was over 100 µM; in the assay on SN12C renal, over 100 µM. Moreover, the values for the TGI with NCI-H226 lung, in the assay on NCI-H460 lung and in the assay on CCRF-CEM leukemia were 0.0706 µM, 23.6 µM and over 43.5 µM, respectively.

The record behind these values is PubChem BioAssay (NCI).
